Reference: BindingDB's records for doi:10.7270/Q2F47MKR (Burnham Center For Chemical Genomics, 2010)

Test: GPR35 antagonists, SAR follow-up, imaging, image-based, set 2 (AID 2480)
[1] = inactive by the depositor's call

SMILES	IC50 [nM]	IC50 [1] [nM]
Cc1ccc(OCCC(=O)NCCc2ccc(S(N)(=O)=O)cc2)cc1 [MLS-0213737.0001]	> 32000	–
COc1cccc(/C=C2\SC(=S)N(CCCC(=O)Nc3ccc(C(=O)O)cc3)C2=O)c1 [4-[4-[(5Z)-5-[(3-methoxyphenyl)methylidene]-4-oxo-2-sulfanylidene-1,3-thiazolidin-3-yl]butanoylamino]benzoic acid]	651	–
COc1ccc(Cn2c(SCC(=O)Nc3ccc(C)c(C)c3)nc3ccsc3c2=O)cc1	> 32000	–
CC(C)c1ccc(NC(=O)CSc2nc3ccsc3c(=O)n2Cc2ccc(C(=O)O)cc2)cc1 [4-[[4-oxo-2-[2-oxo-2-(4-propan-2-ylanilino)ethyl]sulfanylthieno[3,2-d]pyrimidin-3-yl]methyl]benzoic acid]	1330	–
c1ccc(-c2n[n+](-c3ccccc3)c(-c3ccccc3)s2)cc1	> 32000	–
COC(=O)CSc1nc2ccc(NC(=O)c3ccccc3C(=O)N3CCOCC3)cc2s1 [methyl 2-[[6-[(2-morpholin-4-ylcarbonylphenyl)carbonylamino]-1,3-benzothiazol-2-yl]sulfanyl]ethanoate]	> 32000	–
O=C(CCCN1C(=O)/C(=C/c2ccc3c(c2)OCO3)SC1=S)Nc1ccc(C(=O)O)c(O)c1 [4-[[4-[(5Z)-5-(1,3-benzodioxol-5-ylmethylidene)-4-oxo-2-sulfanylidene-3-thiazolidinyl]-1-oxobutyl]amino]-2-hydroxybenzoic acid]	300	–
O=C(CCCN1C(=O)S/C(=C/C=C/c2ccccc2)C1=O)Nc1ccc(C(=O)O)cc1 [4-[4-[(5E)-2,4-dioxo-5-[(E)-3-phenylprop-2-enylidene]-1,3-thiazolidin-3-yl]butanoylamino]benzoic acid]	1170	–
O=C(Nc1ccc2nc(SCc3ccc(Cl)c(Cl)c3)sc2c1)c1ccccc1Br	> 32000	–
Cc1ccc2[nH]c(C)c(/C=C/c3cc[n+](C)cc3)c2c1	2360	–
CC(C)(C)c1ccc(OCCC(=O)NCCc2ccc(S(N)(=O)=O)cc2)cc1 [MLS001151090]	2230	–
O=C(CCCN1C(=O)/C(=C/c2ccc3c(c2)OCO3)SC1=S)Nc1cccc(C(=O)O)c1 [3-[[4-[(5Z)-5-(1,3-benzodioxol-5-ylmethylidene)-4-oxo-2-sulfanylidene-3-thiazolidinyl]-1-oxobutyl]amino]benzoic acid]	983	–
COc1ccc(/C=C2\SC(=S)N(CCCC(=O)Nc3ccc(C(=O)O)c(O)c3)C2=O)cc1OC [4-[4-[(5Z)-5-[(3,4-dimethoxyphenyl)methylidene]-4-oxo-2-sulfanylidene-1,3-thiazolidin-3-yl]butanoylamino]-2-hydroxybenzoic acid]	151	–
CCOC(=O)c1ccc(NC(=O)CCCN2C(=O)/C(=C/c3ccc(C)cc3)SC2=S)cc1 [MLS-0435416.0001]	2600	–
O=C(CCCN1C(=O)/C(=C\c2cccs2)SC1=S)Nc1ccc(O)cc1 [N-(4-hydroxyphenyl)-4-[(5E)-4-oxo-2-sulfanylidene-5-(thiophen-2-ylmethylidene)-1,3-thiazolidin-3-yl]butanamide]	–	11000
COc1ccc(/C=C2\SC(=S)N(CCCC(=O)Nc3ccc(O)cc3)C2=O)cc1 [MLS-0304362.0001]	1160	–
O=C(CCCN1C(=O)/C(=C\c2ccccc2)SC1=S)Nc1cccc(C(=O)O)c1 [3-[4-(5-Benzylidene-4-oxo-2-thioxo-thiazolidin-3-yl)-butyrylamino]-benzoic acid]	1600	–
CCc1ccc(NC(=O)CSc2nc3ccsc3c(=O)n2Cc2ccc(OC)cc2)cc1 [N-(4-ethylphenyl)-2-[[3-[(4-methoxyphenyl)methyl]-4-oxo-2-thieno[3,2-d]pyrimidinyl]thio]acetamide]	> 32000	–
COc1ccc(/C=C2/SC(=S)N(CCCC(=O)Nc3ccc(O)cc3)C2=O)cc1 [N-(4-hydroxyphenyl)-4-[(5E)-5-[(4-methoxyphenyl)methylidene]-4-oxidanylidene-2-sulfanylidene-1,3-thiazolidin-3-yl]butanamide]	1070	–
Cc1ccc(/C=C2\SC(=S)N(CCCC(=O)Nc3ccc(O)cc3)C2=O)cc1 [MLS000777252]	1420	–
C=CCn1c(C)c(/C=C/c2cc[n+](C)cc2)c2ccccc21 [2-methyl-3-[(E)-2-(1-methyl-4-pyridin-1-iumyl)ethenyl]-1-prop-2-enylindole;iodide]	4990	–
c1ccc(Cn2ncc3c(N4CCN(c5ccccc5)CC4)ncnc32)cc1 [1-(phenylmethyl)-4-(4-phenylpiperazin-1-yl)pyrazolo[3,4-d]pyrimidine]	–	17000
Cc1c(C(=O)Nc2ccc3c(c2)OCCO3)sc2ncnc(O)c12 [N-(2,3-dihydro-1,4-benzodioxin-6-yl)-5-methyl-4-oxo-3H-thieno[2,3-d]pyrimidine-6-carboxamide]	> 32000	–
O=C(CCCN1C(=O)/C(=C\c2ccccc2)SC1=S)Nc1ccc(C(=O)O)cc1 [4-[[1-oxo-4-[(5E)-4-oxo-5-(phenylmethylene)-2-sulfanylidene-3-thiazolidinyl]butyl]amino]benzoic acid]	1680	–
O=C(CCCN1C(=O)S/C(=C\C=C\c2ccccc2)C1=O)Nc1ccc(C(=O)O)cc1 [MLS000948015]	1170	–
Clc1ccc(Cn2ncc3c(N4CCN(c5ccccc5)CC4)ncnc32)cc1	7170	–
CCOC(=O)c1ccc(NC(=O)CCCN2C(=O)/C(=C/c3ccccc3)SC2=S)cc1 [ethyl 4-[4-[(5Z)-5-benzylidene-4-oxo-2-sulfanylidene-1,3-thiazolidin-3-yl]butanoylamino]benzoate]	8630	–

SMILES	IC50 [nM]	IC50 [1] [nM]
Cc1nc(N2CCC(C)CC2)c2c(C)c(C(=O)Nc3ccc(C)c(F)c3)sc2n1 [MLS-0244945.0001]	6100	–
O=C(CCCN1C(=O)/C(=C/c2ccc3c(c2)OCO3)SC1=S)Nc1ccc(C(=O)O)cc1 [SMR000664854]	1180	–
O=C(CCCN1C(=O)/C(=C/c2ccccc2)SC1=S)Nc1ccc(C(=O)O)c(O)c1 [4-[4-[(5Z)-5-benzylidene-4-oxo-2-sulfanylidene-1,3-thiazolidin-3-yl]butanoylamino]-2-hydroxybenzoic acid]	295	–
Cc1ccc(Cn2ncc3c(N4CCN(c5ccccc5C)CC4)ncnc32)cc1 [1-(4-methylbenzyl)-4-[4-(2-methylphenyl)-1-piperazinyl]-1H-pyrazolo[3,4-d]pyrimidine]	2650	–
Clc1ccc(Cn2ncc3c(N4CCN(c5cccc(Cl)c5)CC4)ncnc32)cc1 [1-[(4-chlorophenyl)methyl]-4-[4-(3-chlorophenyl)piperazin-1-yl]pyrazolo[3,4-d]pyrimidine]	> 32000	–
CCC(Sc1nc2ccsc2c(=O)n1Cc1ccc(C(=O)O)cc1)C(=O)Nc1ccc(C)c(Cl)c1 (centres undefined)	> 32000	–
O=C(Nc1ccc2nc(SCc3ccccc3)sc2c1)c1ccccc1C(=O)N1CCOCC1 [2-[4-morpholinyl(oxo)methyl]-N-[2-(phenylmethylthio)-1,3-benzothiazol-6-yl]benzamide]	1610	–
O=C(Nc1ccc2nc(SCc3ccc(Cl)cc3)sc2c1)c1ccccc1C(=O)N1CCOCC1	554	–
CCc1ccc(/C=C2\SC(=S)N(CCCC(=O)Nc3ccc(C(=O)O)cc3)C2=O)cc1 [SMR000646238]	71.8	–
Cc1c(C(=O)Nc2ccc3c(c2)OCCO3)sc2ncnc(N3CCCCC3C)c12 (centres undefined) [MLS-0359029.0001]	> 32000	–
Cc1c(C(=O)Nc2ccc3c(c2)OCCO3)sc2ncnc(N3CCC(C)CC3)c12 [N-(2,3-dihydro-1,4-benzodioxin-6-yl)-5-methyl-4-(4-methyl-1-piperidinyl)-6-thieno[2,3-d]pyrimidinecarboxamide]	4070	–
O=C(CCCN1C(=O)/C(=C\c2ccccc2)SC1=S)Nc1ccc(O)cc1 [N-(4-hydroxyphenyl)-4-[(5E)-4-oxidanylidene-5-(phenylmethylidene)-2-sulfanylidene-1,3-thiazolidin-3-yl]butanamide]	–	11800
Cc1nc(N2CCC(C)CC2)c2c(C)c(C(=O)Nc3ccccc3C(F)(F)F)sc2n1 [SMR000312025]	–	10200
CC(/C=C1\SC(=S)N(CCCC(=O)Nc2ccc(C(=O)O)cc2)C1=O)=C\c1ccccc1 [4-[4-[(5Z)-5-[(E)-2-methyl-3-phenyl-prop-2-enylidene]-4-oxidanylidene-2-sulfanylidene-1,3-thiazolidin-3-yl]butanoylamino]benzoic acid]	105	–
Cn1cc(/C=C/c2cc[n+](C)cc2)c2cc(Cl)ccc21 [5-chloranyl-1-methyl-3-[(E)-2-(1-methylpyridin-1-ium-4-yl)ethenyl]indole;hydroiodide]	5170	–
Cc1ccccc1OCCC(=O)NCCc1ccc(S(N)(=O)=O)cc1 [MLS-0213188.0001]	> 32000	–
COc1ccc(/C=C2\SC(=S)N(CCCC(=O)Nc3cccc(C(=O)O)c3)C2=O)cc1OC [3-[4-[(5Z)-5-[(3,4-dimethoxyphenyl)methylidene]-4-oxidanylidene-2-sulfanylidene-1,3-thiazolidin-3-yl]butanoylamino]benzoic acid]	607	–
O=C(CCCN1C(=O)S/C(=C/c2ccccc2)C1=S)Nc1ccc(C(=O)O)cc1 [MLS001167691]	1600	–
Cc1ccc(C)c(OCCC(=O)NCCc2ccc(S(N)(=O)=O)cc2)c1	> 32000	–
CC(C)COc1ccc(-c2nnc(-c3ccc(Cl)nc3)o2)cc1 [MLS-0435441.0001]	> 32000	–
O=C(CCCN1C(=O)/C(=C/c2ccccc2)SC1=S)Nc1ccc(O)cc1 [N-(4-hydroxyphenyl)-4-[(5Z)-4-oxo-5-(phenylmethylene)-2-sulfanylidene-3-thiazolidinyl]butanamide]	8710	–
Cc1ccc(Cn2ncc3c(N4CCN(c5ccc(C)cc5)CC4)ncnc32)cc1	–	17700
CCC(Sc1nc2ccsc2c(=O)n1Cc1ccc(C(=O)O)cc1)C(=O)Nc1ccc(Cl)cc1 (centres undefined) [MLS-0435427.0001]	> 32000	–
Cc1nc(N2CCC(C)CC2)c2c(C)c(C(=O)Nc3ccc4c(c3)OCCO4)sc2n1 [N-(2,3-dihydro-1,4-benzodioxin-6-yl)-2,5-dimethyl-4-(4-methyl-1-piperidinyl)-6-thieno[2,3-d]pyrimidinecarboxamide]	1880	–
CCOc1ccc(NC(=O)CSc2nc3ccsc3c(=O)n2Cc2ccc(C(=O)O)cc2)cc1	–	12500
Fc1ccc(N2CCN(c3ncnc4c3cnn4Cc3ccc(Cl)cc3Cl)CC2)cc1 [MLS-0435440.0001]	> 32000	–
Cc1ccccc1N1CCN(c2ncnc3c2cnn3Cc2ccc(Cl)cc2)CC1 [1-[(4-chlorophenyl)methyl]-4-[4-(2-methylphenyl)-1-piperazinyl]pyrazolo[3,4-d]pyrimidine]	2220	–
